According to article PMC11864979, “First-in-class ultralong-target-residence-time p38α inhibitors as a mitosis-targeted therapy for colorectal cancer” (Nature Cancer, 2025):
Where two headings read alike, the source gives them in different places.

Assays:
Assay in all cases: selectivity profiling in a panel of 340 wild-type kinases (Reaction Biology Europe)
Type in all cases: binding
[1] = target: T1, 340 wild-type kinases (Homo sapiens, UniProt Q16816)
T1 construct: purchased Reaction Biology Europe

[2] = target: T2, 340 wild-type kinases (Homo sapiens, UniProt Q13153)
T2 construct: purchased Reaction Biology Europe

[3] = target: T3, 340 wild-type kinases (Homo sapiens, UniProt Q9BXA7)
T3 construct: purchased Reaction Biology Europe
T3 sequence (Q9BXA7 1-367): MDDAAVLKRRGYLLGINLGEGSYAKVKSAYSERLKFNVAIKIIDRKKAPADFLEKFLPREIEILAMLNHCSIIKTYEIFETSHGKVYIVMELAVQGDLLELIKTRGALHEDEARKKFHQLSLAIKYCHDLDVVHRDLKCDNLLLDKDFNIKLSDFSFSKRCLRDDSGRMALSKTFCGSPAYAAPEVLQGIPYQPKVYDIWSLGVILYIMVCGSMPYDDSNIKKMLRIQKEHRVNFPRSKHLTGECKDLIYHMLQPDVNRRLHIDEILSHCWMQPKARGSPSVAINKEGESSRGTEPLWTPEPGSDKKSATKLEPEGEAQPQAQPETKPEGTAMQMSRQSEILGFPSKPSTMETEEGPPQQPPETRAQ

[4] = target: T4, 340 wild-type kinases (Homo sapiens, UniProt Q8N5S9)
T4 construct: purchased Reaction Biology Europe

[5] = target: T5, 340 wild-type kinases (Homo sapiens, UniProt Q15139)
T5 construct: purchased Reaction Biology Europe
T5 sequence (Q15139 1-912): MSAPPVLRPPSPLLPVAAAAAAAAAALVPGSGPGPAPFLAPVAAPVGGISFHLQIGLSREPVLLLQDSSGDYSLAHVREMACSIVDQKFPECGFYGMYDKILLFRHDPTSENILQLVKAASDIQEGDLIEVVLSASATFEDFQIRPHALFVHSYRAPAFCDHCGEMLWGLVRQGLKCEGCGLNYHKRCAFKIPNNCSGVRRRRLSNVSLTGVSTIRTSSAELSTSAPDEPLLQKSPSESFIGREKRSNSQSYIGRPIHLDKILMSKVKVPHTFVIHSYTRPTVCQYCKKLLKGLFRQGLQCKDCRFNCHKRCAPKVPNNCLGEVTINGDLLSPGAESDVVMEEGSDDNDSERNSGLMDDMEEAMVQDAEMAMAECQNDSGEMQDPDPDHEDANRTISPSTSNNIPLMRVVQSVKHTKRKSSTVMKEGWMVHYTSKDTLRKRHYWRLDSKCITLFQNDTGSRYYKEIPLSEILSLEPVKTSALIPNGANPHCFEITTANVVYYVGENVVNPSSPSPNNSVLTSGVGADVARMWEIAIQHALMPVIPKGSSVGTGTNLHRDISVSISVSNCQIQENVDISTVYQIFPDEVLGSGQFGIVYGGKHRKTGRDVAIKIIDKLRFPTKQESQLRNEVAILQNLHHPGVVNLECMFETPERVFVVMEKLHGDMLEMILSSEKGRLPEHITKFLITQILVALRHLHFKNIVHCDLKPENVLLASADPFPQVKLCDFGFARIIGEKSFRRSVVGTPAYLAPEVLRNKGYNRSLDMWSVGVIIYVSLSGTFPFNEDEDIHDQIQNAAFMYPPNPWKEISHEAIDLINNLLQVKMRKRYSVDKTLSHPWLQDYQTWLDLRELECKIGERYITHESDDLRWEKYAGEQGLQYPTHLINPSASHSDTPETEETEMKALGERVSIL

[6] = target: T6, 340 wild-type kinases (Homo sapiens, UniProt P17252)
T6 construct: purchased Reaction Biology Europe

[7] = target: T7, 340 wild-type kinases (Homo sapiens, UniProt Q6IQ55)
T7 construct: purchased Reaction Biology Europe

[8] = target: T8, 340 wild-type kinases (Homo sapiens, UniProt P54756)
T8 construct: purchased Reaction Biology Europe

[9] = target: T9, 340 wild-type kinases (Homo sapiens, UniProt P23458)
T9 construct: purchased Reaction Biology Europe
T9 sequence (P23458 whole entry): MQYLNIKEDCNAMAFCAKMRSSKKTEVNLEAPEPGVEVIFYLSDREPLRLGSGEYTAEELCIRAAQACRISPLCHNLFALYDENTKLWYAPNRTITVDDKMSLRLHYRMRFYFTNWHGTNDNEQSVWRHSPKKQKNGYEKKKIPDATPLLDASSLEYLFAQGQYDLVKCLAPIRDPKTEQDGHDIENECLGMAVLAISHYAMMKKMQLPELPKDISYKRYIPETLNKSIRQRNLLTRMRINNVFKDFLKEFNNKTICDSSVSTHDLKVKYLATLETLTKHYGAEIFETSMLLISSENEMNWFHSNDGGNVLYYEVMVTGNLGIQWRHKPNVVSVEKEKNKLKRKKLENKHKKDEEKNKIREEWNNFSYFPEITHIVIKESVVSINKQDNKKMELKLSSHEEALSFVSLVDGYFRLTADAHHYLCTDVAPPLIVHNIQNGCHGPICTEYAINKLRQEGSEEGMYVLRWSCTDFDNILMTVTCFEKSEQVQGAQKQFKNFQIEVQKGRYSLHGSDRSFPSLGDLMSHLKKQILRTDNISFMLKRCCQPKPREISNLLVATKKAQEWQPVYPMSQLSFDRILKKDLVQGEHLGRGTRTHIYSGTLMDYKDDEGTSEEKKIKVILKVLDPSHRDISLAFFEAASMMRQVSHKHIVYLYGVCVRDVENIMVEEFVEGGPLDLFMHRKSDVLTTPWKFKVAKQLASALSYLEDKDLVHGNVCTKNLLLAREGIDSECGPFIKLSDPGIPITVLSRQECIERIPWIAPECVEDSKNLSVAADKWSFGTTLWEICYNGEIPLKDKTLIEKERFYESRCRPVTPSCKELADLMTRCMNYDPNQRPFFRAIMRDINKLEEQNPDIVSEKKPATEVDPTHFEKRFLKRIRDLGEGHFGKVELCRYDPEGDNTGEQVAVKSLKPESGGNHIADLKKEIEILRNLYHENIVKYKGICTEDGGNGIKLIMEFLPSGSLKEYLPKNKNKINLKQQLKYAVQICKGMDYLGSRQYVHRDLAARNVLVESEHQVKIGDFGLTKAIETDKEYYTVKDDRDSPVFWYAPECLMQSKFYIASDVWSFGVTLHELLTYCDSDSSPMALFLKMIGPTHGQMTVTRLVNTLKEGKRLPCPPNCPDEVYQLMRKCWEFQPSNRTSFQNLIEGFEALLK

T2 sequence (Q13153 whole entry): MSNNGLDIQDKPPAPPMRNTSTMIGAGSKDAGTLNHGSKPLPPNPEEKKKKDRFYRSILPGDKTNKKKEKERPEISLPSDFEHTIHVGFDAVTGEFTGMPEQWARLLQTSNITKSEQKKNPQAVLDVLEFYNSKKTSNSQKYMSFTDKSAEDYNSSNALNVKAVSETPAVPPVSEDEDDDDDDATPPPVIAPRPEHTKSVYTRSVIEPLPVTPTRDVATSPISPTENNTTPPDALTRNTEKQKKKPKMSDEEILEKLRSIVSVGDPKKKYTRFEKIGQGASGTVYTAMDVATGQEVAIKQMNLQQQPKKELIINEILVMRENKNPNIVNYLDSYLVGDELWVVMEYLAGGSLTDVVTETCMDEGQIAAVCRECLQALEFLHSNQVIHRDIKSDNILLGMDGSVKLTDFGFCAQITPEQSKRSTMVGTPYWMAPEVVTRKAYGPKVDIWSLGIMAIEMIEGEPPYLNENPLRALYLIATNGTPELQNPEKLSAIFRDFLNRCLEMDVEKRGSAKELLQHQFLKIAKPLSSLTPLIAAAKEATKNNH
T8 sequence (P54756 25-1037): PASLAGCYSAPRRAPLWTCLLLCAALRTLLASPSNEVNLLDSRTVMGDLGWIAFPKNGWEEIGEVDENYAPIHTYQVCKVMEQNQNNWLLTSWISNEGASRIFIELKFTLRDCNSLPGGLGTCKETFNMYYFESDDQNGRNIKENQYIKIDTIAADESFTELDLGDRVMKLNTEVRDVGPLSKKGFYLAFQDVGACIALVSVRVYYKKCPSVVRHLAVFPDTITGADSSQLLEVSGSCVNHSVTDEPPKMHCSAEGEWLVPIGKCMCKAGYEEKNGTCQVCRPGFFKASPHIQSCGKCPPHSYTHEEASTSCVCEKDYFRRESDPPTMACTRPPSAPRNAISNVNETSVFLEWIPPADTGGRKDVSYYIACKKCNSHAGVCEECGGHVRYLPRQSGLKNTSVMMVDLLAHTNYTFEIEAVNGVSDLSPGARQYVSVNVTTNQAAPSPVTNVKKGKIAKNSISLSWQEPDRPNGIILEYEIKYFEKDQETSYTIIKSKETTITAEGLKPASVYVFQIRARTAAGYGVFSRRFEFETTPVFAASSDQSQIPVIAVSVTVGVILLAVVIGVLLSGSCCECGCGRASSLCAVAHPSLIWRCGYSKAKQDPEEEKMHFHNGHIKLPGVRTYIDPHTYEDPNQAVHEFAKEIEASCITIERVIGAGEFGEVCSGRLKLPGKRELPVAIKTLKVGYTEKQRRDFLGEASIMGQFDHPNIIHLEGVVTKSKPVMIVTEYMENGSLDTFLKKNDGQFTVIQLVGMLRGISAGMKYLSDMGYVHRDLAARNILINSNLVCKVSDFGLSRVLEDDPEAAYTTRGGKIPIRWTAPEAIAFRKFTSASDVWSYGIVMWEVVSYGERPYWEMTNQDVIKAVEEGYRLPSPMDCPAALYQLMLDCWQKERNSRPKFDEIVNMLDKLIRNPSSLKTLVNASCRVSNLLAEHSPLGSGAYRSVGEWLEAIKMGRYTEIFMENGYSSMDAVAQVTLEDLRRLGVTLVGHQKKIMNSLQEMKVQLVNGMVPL
T7 sequence (Q6IQ55 whole entry): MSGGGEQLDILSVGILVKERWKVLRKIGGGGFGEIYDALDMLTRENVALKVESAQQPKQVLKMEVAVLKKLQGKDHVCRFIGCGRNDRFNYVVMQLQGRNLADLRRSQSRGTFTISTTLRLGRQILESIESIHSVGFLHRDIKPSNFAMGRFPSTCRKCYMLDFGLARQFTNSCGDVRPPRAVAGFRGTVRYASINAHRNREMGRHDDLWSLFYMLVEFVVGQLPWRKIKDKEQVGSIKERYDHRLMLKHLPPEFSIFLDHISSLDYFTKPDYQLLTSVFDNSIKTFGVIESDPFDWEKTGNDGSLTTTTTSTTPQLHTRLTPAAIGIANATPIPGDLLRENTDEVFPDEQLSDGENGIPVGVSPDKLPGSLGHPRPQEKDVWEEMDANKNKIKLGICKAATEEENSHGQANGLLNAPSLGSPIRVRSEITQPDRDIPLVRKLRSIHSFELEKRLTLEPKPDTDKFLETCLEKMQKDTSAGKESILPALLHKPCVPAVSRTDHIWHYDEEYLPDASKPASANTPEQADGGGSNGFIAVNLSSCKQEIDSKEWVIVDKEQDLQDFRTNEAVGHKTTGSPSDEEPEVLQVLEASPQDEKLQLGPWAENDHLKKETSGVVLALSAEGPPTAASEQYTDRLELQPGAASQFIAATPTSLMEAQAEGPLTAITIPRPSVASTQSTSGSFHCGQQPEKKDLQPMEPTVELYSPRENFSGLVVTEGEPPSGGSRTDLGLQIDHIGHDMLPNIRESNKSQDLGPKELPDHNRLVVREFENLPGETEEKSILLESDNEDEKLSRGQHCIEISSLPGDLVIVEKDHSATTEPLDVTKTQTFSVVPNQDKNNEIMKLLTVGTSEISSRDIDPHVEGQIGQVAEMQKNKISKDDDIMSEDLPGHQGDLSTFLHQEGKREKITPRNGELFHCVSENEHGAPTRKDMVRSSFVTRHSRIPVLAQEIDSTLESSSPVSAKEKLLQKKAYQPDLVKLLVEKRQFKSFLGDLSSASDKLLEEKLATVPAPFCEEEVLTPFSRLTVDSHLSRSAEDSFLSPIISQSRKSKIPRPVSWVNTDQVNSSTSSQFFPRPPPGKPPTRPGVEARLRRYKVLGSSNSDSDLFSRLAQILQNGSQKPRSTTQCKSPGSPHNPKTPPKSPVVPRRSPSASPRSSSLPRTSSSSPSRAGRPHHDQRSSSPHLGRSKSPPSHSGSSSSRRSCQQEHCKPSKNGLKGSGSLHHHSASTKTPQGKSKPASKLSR
T1 sequence (Q16816 whole entry): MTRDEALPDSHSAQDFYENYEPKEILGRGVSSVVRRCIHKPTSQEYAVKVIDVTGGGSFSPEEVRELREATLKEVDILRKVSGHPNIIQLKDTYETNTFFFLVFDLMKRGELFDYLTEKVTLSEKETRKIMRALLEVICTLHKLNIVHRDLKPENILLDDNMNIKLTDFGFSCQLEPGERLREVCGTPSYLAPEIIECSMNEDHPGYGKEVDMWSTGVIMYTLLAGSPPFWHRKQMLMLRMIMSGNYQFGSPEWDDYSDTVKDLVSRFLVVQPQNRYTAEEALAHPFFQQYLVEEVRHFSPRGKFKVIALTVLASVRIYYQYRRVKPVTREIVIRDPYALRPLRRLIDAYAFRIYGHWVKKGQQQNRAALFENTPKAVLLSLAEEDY
T4 sequence (Q8N5S9 whole entry): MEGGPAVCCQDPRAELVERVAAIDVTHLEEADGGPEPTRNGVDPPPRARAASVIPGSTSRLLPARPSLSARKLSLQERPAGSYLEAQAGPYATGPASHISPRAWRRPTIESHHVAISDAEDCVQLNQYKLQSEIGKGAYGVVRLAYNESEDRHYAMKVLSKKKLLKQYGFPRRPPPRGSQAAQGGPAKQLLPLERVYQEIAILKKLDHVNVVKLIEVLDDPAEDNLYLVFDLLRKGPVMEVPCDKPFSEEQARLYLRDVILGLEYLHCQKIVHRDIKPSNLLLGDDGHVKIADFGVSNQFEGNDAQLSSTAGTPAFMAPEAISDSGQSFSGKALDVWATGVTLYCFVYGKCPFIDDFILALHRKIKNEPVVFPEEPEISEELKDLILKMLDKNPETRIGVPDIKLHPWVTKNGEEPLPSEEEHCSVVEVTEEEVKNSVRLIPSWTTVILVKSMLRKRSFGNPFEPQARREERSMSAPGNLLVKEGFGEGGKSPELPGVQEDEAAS

CNC(=O)c1ccc2c(c1)C(=O)c1ccc(Nc3ccc(F)c(NC(=O)C4CC4)c3)cc1CC2 [Compound 2015]
remaining activity at 0.2 µM ([1]; 0.2 µM 2015, read-out: PHKG1 residual activity): 90.9%
remaining activity at 1 µM ([1]; 1 µM 2015, read-out: PHKG1 residual activity): 102%
remaining activity at 0.2 µM ([1]; PHKG1, 0.2 µM, read-out: residual activity): 90.9%
remaining activity at 1 µM ([1]; PHKG1, 1 µM, read-out: residual activity): 102%
remaining activity at 0.2 µM ([2]; 0.2 µM 2015, read-out: PAK1 residual activity): 94.7%
remaining activity at 1 µM ([2]; 1 µM 2015, read-out: PAK1 residual activity): 79.5%
remaining activity at 0.2 µM ([2]; PAK1, 0.2 µM, read-out: residual activity): 94.7%
remaining activity at 1 µM ([2]; PAK1, 1 µM, read-out: residual activity): 79.5%
remaining activity at 0.2 µM ([3]; 0.2 µM 2015, read-out: TSSK1 residual activity): 125%
remaining activity at 1 µM ([3]; 1 µM 2015, read-out: TSSK1 residual activity): 106%
remaining activity at 0.2 µM ([3]; TSSK1, 0.2 µM, read-out: residual activity): 125%
remaining activity at 1 µM ([3]; TSSK1, 1 µM, read-out: residual activity): 106%
remaining activity at 0.2 µM ([4]; 0.2 µM 2015, read-out: CAMKK1 residual activity): 123%
remaining activity at 1 µM ([4]; 1 µM 2015, read-out: CAMKK1 residual activity): 106%
remaining activity at 0.2 µM ([4]; CAMKK1, 0.2 µM, read-out: residual activity): 123%
remaining activity at 1 µM ([4]; CAMKK1, 1 µM, read-out: residual activity): 106%
remaining activity at 0.2 µM ([5]; 0.2 µM 2015, read-out: PKCmu residual activity): 98.1%
remaining activity at 1 µM ([5]; 1 µM 2015, read-out: PKCmu residual activity): 95.1%
remaining activity at 0.2 µM ([5]; PKCmu, 0.2 µM, read-out: residual activity): 98.1%
remaining activity at 1 µM ([5]; PKCmu, 1 µM, read-out: residual activity): 95.1%
remaining activity at 0.2 µM ([6]; 0.2 µM 2015, read-out: PKCalpha residual activity): 118%
remaining activity at 1 µM ([6]; 1 µM 2015, read-out: PKCalpha residual activity): 98.8%
remaining activity at 0.2 µM ([6]; PKCalpha, 0.2 µM, read-out: residual activity): 118%
remaining activity at 1 µM ([6]; PKCalpha, 1 µM, read-out: residual activity): 98.8%
remaining activity at 0.2 µM ([7]; 0.2 µM 2015, read-out: TTBK2 residual activity): 115%
remaining activity at 1 µM ([7]; 1 µM 2015, read-out: TTBK2 residual activity): 118%
remaining activity at 0.2 µM ([7]; TTBK2, 0.2 µM, read-out: residual activity): 115%
remaining activity at 1 µM ([7]; TTBK2, 1 µM, read-out: residual activity): 118%
remaining activity at 0.2 µM ([8]; 0.2 µM 2015, read-out: EPHA5 residual activity): 110%
remaining activity at 1 µM ([8]; 1 µM 2015, read-out: EPHA5 residual activity): 98.5%
remaining activity at 0.2 µM ([8]; EPHA5, 0.2 µM, read-out: residual activity): 110%
remaining activity at 1 µM ([8]; EPHA5, 1 µM, read-out: residual activity): 98.5%
remaining activity at 0.2 µM ([9]; 0.2 µM 2015, read-out: JAK1 residual activity): 86.7%
remaining activity at 1 µM ([9]; 1 µM 2015, read-out: JAK1 residual activity): 99.8%
remaining activity at 0.2 µM ([9]; JAK1, 0.2 µM, read-out: residual activity): 86.7%
remaining activity at 1 µM ([9]; JAK1, 1 µM, read-out: residual activity): 99.8%
